Experimental data published in patent US11530195B1, “Protacs targeting coronavirus 3CL protease and preparation method and application thereof” (SHAANXI PANLONG PHARMACEUTICAL CO., LTD., priority 2022, dated 2022).
Where two headings read alike, the source gives them in different places.

Columns and labels:
SARS-CoV-2 3CL^pro [1] = biological target: T1, SARS-CoV-2 3CL^pro (Severe acute respiratory syndrome coronavirus 2 (2019-nCoV) (SARS-CoV-2), UniProt P0DTD1); type: cell-based; conditions: Western Blot
SARS-CoV-2 3CL^pro [2] = biological target: T1, SARS-CoV-2 3CL^pro; assay: 3CL^pro inhibitory activity test (fluorescence resonance energy transfer); type: biochemical
[3] = HEK293E cells transfected with 3CL^pro plasmid, 24 h treatment, read-out: DC50
[4] = HEK293E cells, 24 h, read-out: DC50 values
[5] = FRET, substrate Dabcyl-KTSAVLQSGFRKME-Edans 20 μM, enzyme 0.5 μM, read-out: IC50

Molecule	DC50 (SARS-CoV-2 3CL^pro [1]; [3])	DC50 (SARS-CoV-2 3CL^pro [1]; [4])	IC50 (SARS-CoV-2 3CL^pro [2]; [5])	IC50 (SARS-CoV-2 3CL^pro [2])	IC50 (SARS-CoV-2 3CL^pro [2]; FRET, read-out: IC50 values)
(E)-7-(4-((4-((6-chloro-2-methyl-2H-indazol-5-yl)imino)-2,6-dioxy-3-(2,4,5-Trifluorobenzyl)-1,3,5-triazin-1-yl)methyl)-1H-1,2,3-triazol-1-yl)-N-(2-Preparation of (2,6-Dioxypiperidin-3-yl)-1-oxoisoquinolin-4-yl)heptamide [Compound 5]	< 100 nM	< 100 nM	100 to 1000 nM	–	–
(E)-7-(4-((4-((6-chloro-2-methyl-2H-indazol-5-yl)imino)-2,6-dioxy-3-(2,4,5-Trifluorobenzyl)-1,3,5-triazin-1-yl)methyl)-1H-1,2,3-triazol-1-yl)-N-(2-Preparation of (2,6-dioxopiperidin-3-yl)-1,3-dioxoisoindolin-4-yl)heptamide [Compound 11]	100 to 1000 nM	–	100 to 1000 nM	–	–
(E)-2-(2-(4-((4-((6-chloro-2-methyl-2H-indazol-5-yl)imino)-2,6-dioxy-3-(2,4,5-Trifluorobenzyl)-1,3,5-triazin-1-yl)methyl)-1H-1,2,3-triazol-1-yl)ethoxy yl)-N-(2-(2,6-dioxopiperidin-3-yl)-1,3-dioxoisoindolin-4-yl)acetamide [Compound 16]	< 100 nM	< 100 nM	100 to 1000 nM	–	–
(E)-8-(4-((4-((6-Chloro-2-methyl-2H-indazol-5-yl)imino)-2,6-dioxy-3-(2,4,5-Trifluorobenzyl)-1,3,5-triazin-1-yl)methyl)-1H-1,2,3-triazol-1-yl)-N-(2-Preparation of (2,6-dioxopiperidin-3-yl)-1,3-dioxoisoindolin-4-yl)octamide [Compound 12]	100 to 1000 nM	–	100 to 1000 nM	–	–
Cn1cc2cc(/N=c3\[nH]c(=O)n(Cc4cn(CCC(=O)Nc5cccc6c5CN(C5CCC(=O)NC5=O)C6=O)nn4)c(=O)n3Cc3cc(F)c(F)cc3F)c(Cl)cc2n1 (stereo not shown) [Compound 1]	100 to 1000 nM	–	–	100 to 1000 nM	–
Cn1cc2cc(/N=c3\[nH]c(=O)n(Cc4cn(CCOCCOCC(=O)Nc5cccc6c5CN(C5CCC(=O)NC5=O)C6=O)nn4)c(=O)n3Cc3cc(F)c(F)cc3F)c(Cl)cc2n1 (stereo not shown) [Compound 14, (E)-2-(2-(2-(4-((4-((6-chloro-2-methyl-2H-indazol-5-yl)imino)-2,6-Dioxy-3-(2,4,5-trifluorobenzyl)-1,3,5-triazin-1-yl)methyl)-1H-1,2,3-triazol-1-yl)ethoxy)ethoxy)-N-(2-(2,6-dioxopiperidin-3-yl)-1-oxoisoindolin-4-yl)acetamide]	< 100 nM	< 100 nM	–	–	–
(E)-5-(4-((4-((6-chloro-2-methyl-2H-indazol-5-yl)imino)-2,6-dioxy-3-(2,4,5-Trifluorobenzyl)-1,3,5-triazin-1-yl)methyl)-1H-1,2,3-triazol-1-yl)-N-(2-Preparation of (2,6-dioxopiperidin-3-yl)-1,3-dioxoisoindolin-4-yl)pentanamide [Compound 9]	< 100 nM	< 100 nM	< 100 nM	–	< 100 nM
Cn1cc2cc(/N=c3\[nH]c(=O)n(Cc4cn(CCC(=O)Nc5cccc6c5C(=O)N(C5CCC(=O)NC5=O)C6=O)nn4)c(=O)n3Cc3cc(F)c(F)cc3F)c(Cl)cc2n1 (stereo not shown) [Compound 7, (E)-3-(4-((4-((6-chloro-2-methyl-2H-indazol-5-yl)imino)-2,6-dioxy-3-(2,4,5-Trifluorobenzyl)-1,3,5-triazin-1-yl)methyl)-1H-1,2,3-triazol-1-yl)-N-(2-Preparation of (2,6-dioxopiperidin-3-yl)-1,3-dioxoisoindolin-4-yl)propionamide]	100 to 1000 nM	–	–	100 to 1000 nM	–
Cn1cc2cc(/N=c3\[nH]c(=O)n(Cc4cn(CCOCCOCCOCC(=O)Nc5cccc6c5CN(C5CCC(=O)NC5=O)C6=O)nn4)c(=O)n3Cc3cc(F)c(F)cc3F)c(Cl)cc2n1 (stereo not shown) [Compound 15, (E)-2-(2-(2-(2-(4-((4-((6-chloro-2-methyl-2H-indazol-5-yl)imino)-2,6-Dioxy-3-(2,4,5-trifluorobenzyl)-1,3,5-triazin-1-yl)methyl)-1H-1,2,3-triazole-1-yl)ethoxy)ethoxy)ethoxy)-N-(2-(2,6-dioxopiperidin-3-yl)-1-oxoisoindolin-4-yl)ethyl Preparation of amides]	< 100 nM	< 100 nM	–	100 to 1000 nM	–
Cn1cc2cc(/N=c3\[nH]c(=O)n(Cc4cn(CCCCCC(=O)Nc5cccc6c5CN(C5CCC(=O)NC5=O)C6=O)nn4)c(=O)n3Cc3cc(F)c(F)cc3F)c(Cl)cc2n1 (stereo not shown) [Compound 4, (E)-6-(4-((4-((6-chloro-2-methyl-2H-indazol-5-yl)imino)-2,6-dioxy-3-(2,4,5-Trifluorobenzyl)-1,3,5-triazin-1-yl)methyl)-1H-1,2,3-triazol-1-yl)-N-(2-Preparation of (2,6-Dioxypiperidin-3-yl)-1-oxoisoquinolin-4-yl)hexanamide]	< 100 nM	< 100 nM	< 100 nM	–	< 100 nM
(E)-4-(4-((4-((6-chloro-2-methyl-2H-indazol-5-yl)imino)-2,6-dioxy-3-(2,4,5-Trifluorobenzyl)-1,3,5-triazin-1-yl)methyl)-1H-1,2,3-triazol-1-yl)-N-(2-Preparation of (2,6-dioxopiperidin-3-yl)-1,3-dioxoisoindolin-4-yl)butanamide [Compound 8]	< 100 nM	< 100 nM	< 100 nM	–	< 100 nM
(E)-6-(4-((4-((6-chloro-2-methyl-2H-indazol-5-yl)imino)-2,6-dioxy-3-(2,4,5-Trifluorobenzyl)-1,3,5-triazin-1-yl)methyl)-1H-1,2,3-triazol-1-yl)-N-(2-Preparation of (2,6-dioxopiperidin-3-yl)-1,3-dioxoisoindolin-4-yl)hexanamide [Compound 10]	< 100 nM	< 100 nM	< 100 nM	–	< 100 nM
Cn1cc2cc(/N=c3\[nH]c(=O)n(Cc4cn(CCOCC(=O)Nc5cccc6c5CN(C5CCC(=O)NC5=O)C6=O)nn4)c(=O)n3Cc3cc(F)c(F)cc3F)c(Cl)cc2n1 (stereo not shown) [Compound 13, (E)-2-(2-(4-((4-((6-chloro-2-methyl-2H-indazol-5-yl)imino)-2,6-dioxy-3-(2,4,5-Trifluorobenzyl)-1,3,5-triazin-1-yl)methyl)-1H-1,2,3-triazol-1-yl)ethoxyyl)-N-(2-(2,6-dioxopiperidin-3-yl)-1-oxoisoquinolin-4-yl)acetamide]	< 100 nM	< 100 nM	–	100 to 1000 nM	–
Cn1cc2cc(/N=c3\[nH]c(=O)n(Cc4cn(CCOCCOCC(=O)Nc5cccc6c5C(=O)N(C5CCC(=O)NC5=O)C6=O)nn4)c(=O)n3Cc3cc(F)c(F)cc3F)c(Cl)cc2n1 (stereo not shown) [Compound 17]	< 100 nM	< 100 nM	–	–	–
